Experimental data published in article PMC8997399, “High-Throughput Screening to Identify Inhibitors of Plasmodium falciparum Importin α” (Cells, 2022).
Where “and” joins values, the source holds several entries; their conditions need not be identical. Equal values may be shown once. Read-outs that look alike come from different tables or passages of the source.

Key:
[1] = target: T1, PfIMPα (Plasmodium falciparum, UniProt Q8IAW0); experiment: Thermostability assay (TSA), PfIMPα; assay type: binding
Experimental: (§1) The effect of inhibitory compounds on IMPα thermostability was tested, as previously, using the fluorescent dye SYPRO Orange (Thermo Fisher Scientific, Waltham, MA, USA) and the Qiagen Rotor-Gene Q6 plex instrument programmed in the melt curve mode. Increasing concentrations of compound in 0.5 µL DMSO were added to 24.5 µL recombinant protein (2 µM) in phosphate-buffered saline (PBS). Next, 1 µL of SYPRO Orange dye was added, the reaction mixture heated at 0.5 °C/min from 27 °C to 90 °C, and the fluorescence intensity caused by the SYPRO Orange binding to the proteins monitored (excitation/emission: 530/555 nm). Tm is the temperature at which 50% of the protein is unfolded.

[2] = target: T2, TgIMPα (Toxoplasma gondii, UniProt A0A125YID0); experiment: Thermostability assay (TSA), TgIMPα; assay type: binding
Experimental: as §1

[3] = target: T1, PfIMPα; experiment: biochemical; assay type: binding; settings: for % Inhibition of IMPα-NLS Interaction PfIMPα: compounds at 10 μM, PfIMPα (10 nM):TGS1-NLS-GFP (60 nM), relative to 1% DMSO control, quadruplicate
Experimental: (§2) PfIMPα, TgIMPα, Mus musculus IMPα (MmIMPα), ΔIBBMmIMPα, and β1 (MmIMPβ) GST fusion proteins were expressed and purified essentially as previously. His-tagged TGS1-NLS-GFP, PfIMPα and TgIMPα proteins were purified using Ni^2+-affinity chromatography as described. His-tagged SV40 T-ag-NLS-GFP was purified as previously. Biotinylation of GST-tagged proteins was carried out using the Sulfo-NHS-Biotin reagent (Pierce, Rockford, IL, USA) as described previously. AlphaScreen binding assay was performed as described previously.
Then, 10 nM biotinylated PfIMPα and 60 nM TGS1-NLS-GFP were used with library compounds, screened at 10 µM final concentration.
Briefly, 5 μL of each compound in DMSO was added to quadruplicate wells of a 384-well plate along with appropriate controls including DMSO alone and ivermectin, as previously, using a JANUS Modular Dispense Technology (MDT) robotic system (PerkinElmer, Waltham, MA, USA). This was followed by successive 7 and 5 μL additions, respectively, of PfIMPα (10 nM) and TGS1-NLS-GFP (60 nM) or PBS (“no bait” control), respectively, and 30 min incubation at room temperature. […] Then, 4 µL of the AlphaScreen donor beads (1/40 dilution of GSH. acceptor beads in PBS) was finally added to each well using a Multidrop, followed by a further incubation of 2 h at room temperature in the dark.
(§3) Plates were read for an Alphascreen signal on an Envision plate reader (PerkinElmer, Waltham, MA, USA), with signals from the negative control wells (no bait control) on each plate subtracted.

[4] = target: T3, MmΔIBBIMPα (Mus musculus, UniProt P52293); experiment: AlphaScreen binding assay, MmΔIBBIMPα:T-ag-NLS-GFP interaction
T3 construct: made in house
Experimental: as §2, §3

[5] = target: T4, MmIMPα (Mus musculus, UniProt P52293); experiment: Thermostability assay (TSA), MmIMPα; assay type: binding
T4 construct: GST; made in house
Experimental: as §1

[6] = test system: P. falciparum 3D7 strain; experiment: P. falciparum growth inhibition assay (HRP2 sandwich ELISA); assay type: cell-based, Plasmodium falciparum
Experimental: Red blood cells (RBCs) were derived from blood from volunteers (approval from the Institute Ethics Committee, IIT Bombay, Mumbai, India) by density gradient centrifugation. Aliquots of cryopreserved P. falciparum 3D7 strain in human red blood cells (RBCs—3% hematocrit, <5% parasitemia) were thawed and cultured using RPMI (Roswell Park Memorial Institute) 1640 medium supplemented with 0.5% Albumax (Gibco^TM, Waltham, MA, USA), 50 mg/L hypoxanthine (Sigma-Aldrich, St Louis, MO, USA), 2 g/L D-glucose (Sigma-Aldrich, St Louis, MO, USA), 2 g/L sodium bicarbonate (Sigma-Aldrich, St Louis, MO, USA), and 56 mg/L of gentamicin (Abbott, Chicago, IL, USA) at 37 °C in 5% CO2 in a humidified incubator according to the standard procedures; suspension cultures were maintained at 3% hematocrit and <5% parasitemia, by adding a fresh medium daily and a regular addition of fresh human RBCs.
Before growth inhibition assays, cultures were synchronized using 5% D-sorbitol (Sigma-Aldrich, St Louis, MO, USA) predominantly to obtain the ring stage of the P. falciparum life cycle.
Growth assays in the absence and presence of inhibitors were performed using the Histidine–Rich Protein 2 (HRP2) sandwich horseradish peroxidase-linked immunosorbent assay to measure HRP2 protein levels as an indicator of growth. Briefly, 25 µL of compound was added to 96-well microculture plates (Eppendorf, Hamburg, Germany) of 0.25% (with fresh RBCs), and added at a hematocrit of 3%. The plates were then incubated for 72 h at 37 °C in a humidified incubator, sparged with 5% CO2. 72 h later, the plates were subjected to freeze–thaw to achieve hemolysis, and samples diluted 200-fold in H2O in transferring to another plate. A day prior to analysis, 96-well ELISA plates (Sigma-Aldrich, St Louis, MO, USA) were coated overnight at 4 °C with 100 µL of 1 μg/mL IgM capture antibody MPFM-55A (Immunology Consultants Laboratory, Portland, OR, USA) specific for P. falciparum HRP2. After blocking for 2 h at room temperature with 2% BSA in PBS, diluted samples were added to the wells, followed by incubation for 2 h, then the plates were washed three times with 0.05% Tween 20 in PBS. Next, 100 µL of the secondary antibody MPFG-55P (Immunology Consultants Laboratory, Portland, OR, USA) conjugated with horseradish peroxidase (0.25 μg/mL in PBS with 2% BSA) was then added to each well, and the plates incubated for 1 h at room temperature, prior to being washed three times, and 100 µL 3,3′, 5,5′ tetramethylbenzidine substrate (BD Biosciences, San Jose, CA, USA) being added. After 10 min incubation in the dark, 50 µL of 1 M H2SO4 was added and the absorbance was read at 450 nm on a Multiscan™ FC Microplate Spectrophotometer (Thermo Fisher Scientific, Waltham, MA, USA).

[7] = target: T2, TgIMPα; experiment: biochemical; assay type: binding; settings: for % Inhibition of IMPα-NLS Interaction TgIMPα: compounds at 10 μM, TgIMPα (5 nM):T-ag-NLS-GFP (30 nM), relative to 1% DMSO control
Experimental: as §2, §3

[8] = concentrations higher than 20 µM
[9] = compounds at 10 μM, ΔIBBMmIMPα (5 nM):T-ag-NLS-GFP (30 nM), relative to 1% DMSO control
[10] = pooled, mean ± SEM (n = 3), read-out: IC50 MmΔIBBIMPα:T-ag-NLS
[11] = single experiment (Figure 3), IMPα 5 nM, NLS 30 nM, read-out: IC50 MmΔIBBIMPα:T-ag-NLS-GFP
[12] = 10 µM, 72 h, 0.25% parasitemia (Figure 5A)
[13] = pooled, mean ± SEM (n = 3), read-out: IC50 TgIMPα:T-ag-NLS-GFP
[14] = concentrations of 75 µM or higher

T1 sequence (Q8IAW0 entry or part of it): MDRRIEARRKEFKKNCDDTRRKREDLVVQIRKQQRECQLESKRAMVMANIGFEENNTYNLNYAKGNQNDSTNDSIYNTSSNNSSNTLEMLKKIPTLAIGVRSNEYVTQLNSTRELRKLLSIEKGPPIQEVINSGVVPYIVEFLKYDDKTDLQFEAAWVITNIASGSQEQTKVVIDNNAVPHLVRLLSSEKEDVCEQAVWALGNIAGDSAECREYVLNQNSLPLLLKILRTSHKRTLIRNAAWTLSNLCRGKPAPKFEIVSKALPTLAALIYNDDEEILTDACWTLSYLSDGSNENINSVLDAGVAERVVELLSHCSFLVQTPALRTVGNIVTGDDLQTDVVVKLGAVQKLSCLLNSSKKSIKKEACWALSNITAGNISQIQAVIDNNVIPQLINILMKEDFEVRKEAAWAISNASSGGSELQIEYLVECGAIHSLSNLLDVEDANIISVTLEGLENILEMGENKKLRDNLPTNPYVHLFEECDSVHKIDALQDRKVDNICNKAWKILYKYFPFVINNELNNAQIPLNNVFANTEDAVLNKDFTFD
T2 sequence (A0A125YID0 entry or part of it): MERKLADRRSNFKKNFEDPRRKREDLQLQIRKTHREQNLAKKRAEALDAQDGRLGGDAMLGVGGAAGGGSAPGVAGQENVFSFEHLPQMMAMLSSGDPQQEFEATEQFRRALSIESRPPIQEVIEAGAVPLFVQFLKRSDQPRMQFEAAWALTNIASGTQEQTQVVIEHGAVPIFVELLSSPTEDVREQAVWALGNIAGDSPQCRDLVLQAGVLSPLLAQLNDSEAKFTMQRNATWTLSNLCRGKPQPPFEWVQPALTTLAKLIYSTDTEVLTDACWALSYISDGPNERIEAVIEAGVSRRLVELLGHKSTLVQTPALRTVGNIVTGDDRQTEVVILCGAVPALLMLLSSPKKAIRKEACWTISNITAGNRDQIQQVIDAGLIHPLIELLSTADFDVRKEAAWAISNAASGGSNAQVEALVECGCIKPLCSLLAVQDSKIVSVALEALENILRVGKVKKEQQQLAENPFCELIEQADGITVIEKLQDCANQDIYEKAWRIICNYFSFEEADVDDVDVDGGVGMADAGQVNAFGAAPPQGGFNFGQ

CC(C)(C)c1ccc(S(=O)(=O)/C=C/C#N)cc1 [Bay 11-7085]
increase of stability of PfIMPα [1, 8]: 9–11 °C
thermostability of PfIMPα reached [1, 8]: 48–50 °C
reduction of stability of PfIMPα ([1]; concentrations up to 10 µM): 6 °C
thermostability of PfIMPα reached ([1]; concentrations up to 10 µM): 39 °C
TgIMPα stable only up to ([2]; 10–20 µM): 30–36 °C
reduction of thermostability of TgIMPα ([2]; 10–20 µM): 9–15 °C
% Inhibition of IMPα-NLS Interaction PfIMPα [3]: 75%
% Inhibition of IMPα-NLS Interaction MmΔIBBIMPα [4, 9]: 9%
IC50 [4, 10]: 23000 nM and 23400 nM
fold higher IC50 for ΔIBBMmIMPα-NLS compared to PfIMPα-TGS-NLS interaction ([4]; selectivity for PfIMPα): ~12 fold
IC50 [4, 11]: 31000 nM
MmIMPα stable only up to ([5]; 10–20 µM): 30–36 °C
reduction of thermostability of MmIMPα ([5]; 10–20 µM): 9–15 °C
inhibition of P. falciparum growth (HRP2 levels) [6, 12]: ~20%
IC50 ([6]; parasites in culture, 72 h, pooled, mean ± SD (n = 3)): > 10000 nM
% Inhibition of IMPα-NLS Interaction TgIMPα [7]: 0%
IC50 [7, 13]: 30400 ± 600 nM
fold higher IC50 for TgIMPα-NLS compared to PfIMPα-TGS-NLS interaction ([7]; selectivity for PfIMPα): ~16 fold

O=C(/C=C/c1ccc(O)c(O)c1)OCCc1ccccc1 [CAPE, Caffeic acid phenethyl ester]
increase in thermostability of PfIMPα [1, 14]: 2 °C
thermostability of PfIMPα reached [1, 14]: 47 °C
change in stability of TgIMPα ([2]; up to 100 µM): did not elicit any marked change in stability
IC50 [3]: 1800 ± 300 nM
inhibition at 10 µM ([3]; read-out: % Inhibition of IMPα-NLS Interaction PfIMPα): 84%
inhibition at 10 µM ([4]; compounds at 10 μM, ΔIBBMmIMPα (5 nM):T-ag-NLS-GFP (30 nM), relative to 1% DMSO control, read-out: % Inhibition of IMPα-NLS Interaction MmΔIBBIMPα): 92%
IC50 [4, 10]: 700 ± 100 nM
change in stability of MmIMPα ([5]; up to 100 µM): did not elicit any marked change in stability
IC50 ([6]; Plasmodium falciparum, 3D7, 72 h, parasites in culture, pooled, mean ± SD (n = 3)): 7500 ± 1100 nM
IC50 ([6]; Plasmodium falciparum, 3D7, 72 h, single typical experiment (Figure 6)): 6500 nM
inhibition at 10 µM ([6]; Plasmodium falciparum, 3D7, 10 µM, 72 h, 0.25% parasitemia (Figure 5A), read-out: inhibition of P. falciparum growth (HRP2 levels)): > 50%
IC50 [7]: 2900 ± 900 nM
inhibition at 10 µM ([7]; read-out: % Inhibition of IMPα-NLS Interaction TgIMPα): 62%

CC(=O)OC[C@H]1O[C@@H]([S-])[C@H](OC(C)=O)[C@@H](OC(C)=O)[C@@H]1OC(C)=O.CCP(CC)CC.[Au+] [auranofin]
PfIMPα stable only up to ([1]; concentrations as low as 5 μM): 32–35 °C
reduction of thermostability of PfIMPα ([1]; concentrations as low as 5 μM): 12–15 °C
TgIMPα stable only up to ([2]; concentrations as low as 5 μM): 32–35 °C
reduction of thermostability of TgIMPα ([2]; concentrations as low as 5 μM): 12–15 °C
% Inhibition of IMPα-NLS Interaction PfIMPα [3]: 94%
% Inhibition of IMPα-NLS Interaction MmΔIBBIMPα [4, 9]: 91%
IC50 [4, 10]: 60 ± 10 nM
IC50 [4, 11]: 50 nM
MmIMPα stable only up to ([5]; concentrations as low as 5 μM): 32–35 °C
reduction of thermostability of MmIMPα ([5]; concentrations as low as 5 μM): 12–15 °C
inhibition of P. falciparum growth (HRP2 levels) [6, 12]: > 50%
% Inhibition of IMPα-NLS Interaction TgIMPα [7]: 90%
IC50 [7, 13]: 80 ± 10 nM
IC50 ([7]; single experiment (Figure 3), IMPα 5 nM, NLS 30 nM, read-out: IC50 TgIMPα:T-ag-NLS-GFP): 50 nM
